Measurements as given in patent US8901127B2, “Pyridazin derivatives as antagonists of the bradykinin B1 receptor” (Boehringer Ingelheim International GmbH, priority 2010, dated 2014).

Target: T1, cynomolgus BK1-receptor (Macaca fascicularis, UniProt Q3BCU0)
T1 construct: expressed in transfected cells; host or cells: CHO cells
T1 sequence (Q3BCU0 1-352): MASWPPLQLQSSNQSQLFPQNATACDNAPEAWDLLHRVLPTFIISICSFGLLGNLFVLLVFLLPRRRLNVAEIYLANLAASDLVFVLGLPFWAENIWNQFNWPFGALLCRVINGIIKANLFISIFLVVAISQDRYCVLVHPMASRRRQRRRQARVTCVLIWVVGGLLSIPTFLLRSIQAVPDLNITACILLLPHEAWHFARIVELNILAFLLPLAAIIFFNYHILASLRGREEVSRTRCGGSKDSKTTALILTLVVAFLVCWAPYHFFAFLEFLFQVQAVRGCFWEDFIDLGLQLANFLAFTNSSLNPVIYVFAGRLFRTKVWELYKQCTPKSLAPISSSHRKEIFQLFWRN
Experiment: cynoBK1 receptor binding assay
Conditions: homogenate of CHO cells expressing cynomolgus BK1-receptor; radioligand 0.5 to 5.0 nM kallidin (DesArg10,Leu9), [3,4-Prolyl-3,43H(N)]; ambient temperature
Procedure: Description of the Method of Binding the cynoBK1-Receptor
CHO cells that express the cynomolgus BK1-receptor are cultivated in “HAM'S F-12 Medium”. The medium is removed from confluent cultures, the cells are washed with PBS buffer, scraped off or detached using Versene and isolated by centrifuging. Then the cells are homogenised in suspension, the homogenate is centrifuged and resuspended. After the protein content has been determined 200 μl of the homogenate (50 to 250 μg protein/assay) are incubated for 60-180 minutes at ambient temperature with 0.5 to 5.0 nM kallidin (DesArg10,Leu9), [3,4-Prolyl-3,43H(N)] and increasing concentrations of the test substance in a total volume of 250 μl. The incubation is stopped by rapid filtration through GF/B glass fibre filters that have been pre-treated with polyethyleneimine (0.3%). The radioactivity bound to the protein is measured with a TopCount NXT. The radioactivity bound in the presence of 1.0 μM kallidin (DesArg10) is defined as non-specific binding. The concentration binding curve may be analysed using computer-aided non-linear curve fitting to determine the corresponding Ki values for the test substance.

O=C(N[C@@]1(C(=O)NCc2ncc(Nc3ccc(Cl)cc3C(F)(F)F)cc2F)CCOC1)c1cn[nH]c(=O)c1 [(5)]
Ki: 5.6 nM
